Test results: US9643950B2, “Solid forms of {s-3-(4-amino-1-oxo-isoindolin-2-yl)(piperidine-3,4,4,5,5-d5)-2,6-dione}” (Concert Pharmaceuticals, Inc., priority 2012, dated 2017)
≈ marks a conversion by molar mass, not a printed value. Entries after “also recorded” stand apart in the source; their conditions may differ. Like-named read-outs stand apart in the source and are kept apart here. Values belong to the molecule of their own block, whether it stands above or below them.

What was measured:
Format in all cases: physicochemical
[1] = Relative stability of Forms 1 and 3 in water/organic mixtures (seeded suspensions)
Description: A series of experiments were conducted to assess the relative stability of Forms 1 and 3. […] The suspensions were each seeded with a small amount of Form 3 (˜1 mg) and stirred until a complete form conversion occurred.

[2] = Physical (solid form) stability on storage or stirring, by PXRD; details: for Physical stability by PXRD: 40° C./75% RH for 6 days
Description: PXRD diffractograms were acquired using PANalytical X'Pert Pro diffractometer on Si zero-background wafers. All diffractograms were collected using a monochromatic Cu Kα (45 kV/40 mA) radiation and a step size of 0.02° 2θ.
Form 1 is a crystalline powder with a PXRD pattern indicated at FIG. 1. FT-Raman (FIG. 2) and FT-IR Spectra (FIG. 3) were also collected. […] HPLC analysis indicated high purity of the material (>99.9% AUC). […] (FIG. 4). The PXRD diffractogram of the material heated past the exothermic event (heating to 261° C. followed by isothermal hold for 7 min) indicates a racemization of D-(S)-lenalidomide, as confirmed by chiral HPLC analyses of a reference material. […] This conclusion is based on two simultaneously run experiments. In one experiment, […] was exposed to 40° C./75% RH. […] Moreover, even this formation of Form 3 may have been at least in part the result of condensation inside of the RH chamber towards the end of the experiment, as a result of which Form 1 became slightly wet.
PXRD (FIG. 6) and PLM microscopy analyses indicate Form 2 to be partially crystalline and phase-impure with amorphous content. Thermal analyses confirmed that the material loses 4.3% wt. upon heating up to 160° C. (FIG. 8). IR analysis of the volatile component released upon heating confirmed water. The loss of water corresponds to broad endothermic (50-100° C.) and exothermic (120-160° C.) events on the DSC trace (FIG. 8), indicating potential dehydration and crystallization, respectively. An FT-Raman spectrum is provided at FIG. 7.

[3] = Visually estimated solubility of Form 1 in an array of solvents
Description: Solubility of Form 1 was visually estimated in an array of different solvents. […] Where applicable, the undissolved solids were analyzed by PXRD to verify crystal form. The data are shown in and indicate that the solubility of Form 1 to be relatively low in water and common organic solvents, (<6 mg/mL), very high in dimethylsulfoxide (DMSO; >400 mg/mL), and moderate in water- or DMSO-containing binary solvent systems.
Solubility of Form 1 was visually estimated in an array of diverse solvents. […] Where applicable, the undissolved solids were analyzed by PXRD to verify crystal form. The data are shown in Table 2 and indicate that the solubility of Form 1 is relatively low in water and common organic solvents, (<6 mg/mL), very high in dimethylsulfoxide (DMSO; >400 mg/mL), and moderate in water- or DMSO-containing binary solvent systems.

[4] = Dynamic vapor sorption (DVS) hygroscopicity
Description: DVS experiments were conducted on a Surface Measurement Systems DVS-HT at 25° C. The instrument was operated in step mode and the relative humidity was increased in 10% RH increments from 40% RH to 90% RH, then decreased from 90% RH to 0% RH, then increased from 0% RH to 90% RH, then decreased from 90% RH to 0% RH. An extra step at 75% RH was included in each cycle. The mass equilibrium criterion was set at 0.005% change in mass over time (dm/dt) prior to each humidity level. A minimum step time of 10 minutes and a maximum step time of 240 minutes were specified.

[5] = HPLC analysis of degradation; details: material from rapid evaporation of methanol solution (rotovapped at 65° C.)
Description: HPLC analyses were conducted with an HP1100 system equipped with a G1131 Quad pump, G1367A autosampler, and G1315B diode array detector. Column: Luna C18(2) (50×2.0 mm, 3 μm). Mobile phase: 100% vol. water (0.05% vol. TFA) to 95% acetonitrile (0.05% vol. TFA) over 8 min and 2 min re-equilibration. Flow rate: 1 mL/min. Detection: 254 nm.

Produced Crystal Form ([1]; 1,4-Dioxane:Water 90:10% vol., water activity 0.7, 5 °C, seeded with Form 3): Form 3
Produced Crystal Form ([1]; 1,4-Dioxane:Water 90:10% vol., water activity 0.7, 20 °C, seeded with Form 3): Form 1
Produced Crystal Form ([1]; 1,4-Dioxane:Water 96.5:3.5% vol., water activity 0.5, 7 °C, seeded with Form 3): Form 1
Produced Crystal Form ([1]; 1,4-Dioxane:Water 96.5:3.5% vol., water activity 0.5, 20 °C, seeded with Form 3): Form 1
Produced Crystal Form ([1]; 1,4-Dioxane:Water 99:1% vol., water activity 0.2, 20 °C, seeded with Form 3): Form 1
Water activity (αw) at which the form is the more stable ([1]; 20° C.): < 0.7
Produced Crystal Form ([1]; Water, water activity 1.0, 5 °C, Form 1 suspension seeded with Form 3): Form 3
Produced Crystal Form ([1]; Water, water activity 1.0, 20 °C, Form 1 suspension seeded with Form 3): Form 3
Water activity (αw) at which the form is the more stable ([1]; lower temperatures (5, and 7° C.)): < 0.5
Residual Solid (crystal form of undissolved solids by PXRD) ([3]; 1,4-Dioxane): Form 1
solubility ([3]; 1,4-dioxane, 40 °C, organic solvent or mixture, thermodynamic from solid, read-out: Solubility at 40° C.): > 6000 µg/mL
Residual Solid (crystal form of undissolved solids by PXRD) ([3]; 2-Propanol): Form 1
solubility ([3]; 2-propanol, 40 °C, organic solvent or mixture, thermodynamic from solid, read-out: Solubility at 40° C.): < 1000 µg/mL
Solubility at RT ([3]; DMSO, 20° C.): >400000 µg/mL
Residual Solid (crystal form of undissolved solids by PXRD) ([3]; Dichloromethane): Form 1
Residual Solid (crystal form of undissolved solids by PXRD) ([3]; Ethyl Acetate): Form 1
Residual Solid (crystal form of undissolved solids by PXRD) ([3]; Heptane): Form 1
Residual Solid (crystal form of undissolved solids by PXRD) ([3]; Toluene): Form 1
solubility ([3]; dichloromethane, 40 °C, organic solvent or mixture, thermodynamic from solid, read-out: Solubility at 40° C.): < 1000 µg/mL
solubility ([3]; ethyl acetate, 40 °C, organic solvent or mixture, thermodynamic from solid, read-out: Solubility at 40° C.): < 1000 µg/mL
solubility ([3]; heptane, 40 °C, organic solvent or mixture, thermodynamic from solid, read-out: Solubility at 40° C.): < 1000 µg/mL
solubility ([3]; organic solvent or mixture, thermodynamic from solid, 1,4-Dioxane, 20° C., read-out: Solubility at RT): < 1000 µg/mL
solubility ([3]; organic solvent or mixture, thermodynamic from solid, 2-Propanol: 10% vol. DMSO, 20° C., read-out: Solubility at RT): 1000 to 10000 µg/mL (≈ 3.78 to 37.8 mM)
solubility ([3]; organic solvent or mixture, thermodynamic from solid, 2-Propanol, 20° C., read-out: Solubility at RT): < 1000 µg/mL
solubility ([3]; organic solvent or mixture, thermodynamic from solid, Acetone, 20° C., read-out: Solubility at RT): 1000 to 6000 µg/mL (≈ 3.78 to 22.7 mM)
solubility ([3]; organic solvent or mixture, thermodynamic from solid, Acetonitrile: 10% vol. DMSO, 20° C., read-out: Solubility at RT): 10000 to 30000 µg/mL (≈ 37.8 to 114 mM)
solubility ([3]; organic solvent or mixture, thermodynamic from solid, Acetonitrile: 10% vol. Water, 20° C., read-out: Solubility at RT): 14000 to 17000 µg/mL (≈ 53 to 64.3 mM)
solubility ([3]; organic solvent or mixture, thermodynamic from solid, Acetonitrile, 20° C., read-out: Solubility at RT): 1000 to 6000 µg/mL (≈ 3.78 to 22.7 mM)
solubility ([3]; organic solvent or mixture, thermodynamic from solid, DMSO, 20° C., read-out: Solubility at RT): > 400000 µg/mL
solubility ([3]; organic solvent or mixture, thermodynamic from solid, Dichloromethane, 20° C., read-out: Solubility at RT): < 1000 µg/mL
solubility ([3]; organic solvent or mixture, thermodynamic from solid, Ethyl Acetate, 20° C., read-out: Solubility at RT): < 1000 µg/mL
solubility ([3]; organic solvent or mixture, thermodynamic from solid, Heptane, 20° C., read-out: Solubility at RT): < 1000 µg/mL
solubility ([3]; organic solvent or mixture, thermodynamic from solid, Methanol: 5% vol. Water, 20° C., read-out: Solubility at RT): 1000 to 10000 µg/mL (≈ 3.78 to 37.8 mM)
solubility ([3]; organic solvent or mixture, thermodynamic from solid, Methanol: 10% vol. Water, 20° C., read-out: Solubility at RT): 1000 to 10000 µg/mL (≈ 3.78 to 37.8 mM)
solubility ([3]; organic solvent or mixture, thermodynamic from solid, Methanol, 20° C., read-out: Solubility at RT): 1000 to 6000 µg/mL (≈ 3.78 to 22.7 mM)
solubility ([3]; organic solvent or mixture, thermodynamic from solid, Tetrahydrofuran, 20° C., read-out: Solubility at RT): 1000 to 6000 µg/mL (≈ 3.78 to 22.7 mM)
solubility ([3]; organic solvent or mixture, thermodynamic from solid, Toluene, 20° C., read-out: Solubility at RT): < 1000 µg/mL
solubility ([3]; thermodynamic from solid, Water, 20° C., read-out: Solubility at RT): 1000 to 6000 µg/mL (≈ 3.78 to 22.7 mM)
solubility ([3]; thermodynamic from solid, water and common organic solvents, 20° C., read-out: Solubility): < 6000 µg/mL
solubility ([3]; toluene, 40 °C, organic solvent or mixture, thermodynamic from solid, read-out: Solubility at 40° C.): < 1000 µg/mL
solubility ([3]; water- or DMSO-containing binary solvent systems, 20° C.): moderate
DVS weight gain ([4]; between 0-90% RH, 25° C.): < 0.65 wt. %
Compound: [2H]C1([2H])C(=O)NC(=O)[C@@]([2H])(N2Cc3c(N)cccc3C2=O)C1([2H])[2H] (single isomer, unassigned) [Form 1, 3-(4-amino-1-oxoisoindolin-2-yl)(piperidine-3,4,4,5,5-d5)-2,6-dione]
Physical stability by PXRD [2]: physically stable; also recorded: Form 1 as the major component, with only a trace of Form 3 being formed

Degradation by HPLC [5]: 2.5 % AUC
Compound: [2H]C1([2H])C(=O)NC(=O)[C@@]([2H])(N2Cc3c(N)cccc3C2=O)C1([2H])[2H] [Amorphous D-(S)-lenalidomide]

Time physically stable [2]: at least 24 hrs
Form obtained upon stirring in water ([2]; water, 12 hr at 5° C.): Form 3 formed
Compound: [2H]C1([2H])C(=O)NC(=O)[C@@]([2H])(N2Cc3c(N)cccc3C2=O)C1([2H])[2H] [Form 2]
Form conversion on storage ([2]; closed vial at room temperature, within 3 weeks): converts to a mixture of Forms 1 and 3; also recorded: converted to Forms 1 and 3

Water activity (αw) at which the form is the more stable ([1]; 20° C.): > 0.7
Time physically stable ([2]; stored in a closed vial): at least 3 weeks
DVS weight change ([4]; between 20-90% relative humidity, room temperature): no weight change
PXRD of residual solid after DVS ([4]; equilibrated at 0% RH for four hours): no change in solid form
Compound: [2H]C1([2H])C(=O)NC(=O)[C@@]([2H])(N2Cc3c(N)cccc3C2=O)C1([2H])[2H] [Form 3]
Physical stability by PXRD [2]: about half of the solid converted to Form 1; also recorded: partial conversion to Form 1
DVS behaviour ([4]; below 20% relative humidity): dehydrate and re-hydrate with a relatively small hysteresis
